From US4680285A, “Treatment of malignant tumors with 2-(β-D-ribofuranosylthiazole-4-carboxamide related compounds” (priority 1985, dated 1987)
Entries after “also recorded” stand apart in the source; their conditions may differ.

How the values were obtained:
L-1210 lymphoid leukemia [1] = experiment: L-1210 lymphoid leukemia in vivo screen, median survival (Example 5); set-up: species or system CD2 F1 male mice; settings: for Percent Treated Animals/Control Animals: >125% positive; for Treated Group Survival Time (median): control 8.5
Excerpt: As an indicator of reproducible activity, compound 1 of the invention was screened against L-1210 lymphoid leukemia in vivo using CD2 F1 male mice as the testing species. The parameter of efficacy chosen was based upon the median survival time of animals treated with the drug vs. appropriate control group animals. Both drug treated animals and control group animals were inoculated IP with 10^5 seed cells of L-1210 lymphoid leukemia in Ascitic fluid.
One day after tumor inoculation, the drug group of animals was placed on a regimen of treatment of compound 1 at the dose levels as noted below, table 1. The drug treated group of animals was inoculated once daily for five days at the doses noted by IP injection of the test compound appropriately diluted with water.
Day six was chosen as an indication of drug toxicity. […] Death of drug treated animals after day six was, therefore, attributed to tumor deaths and not drug toxicity.
The median death day of the control group was day 8.5. […] A percent of drug treated animals/control animals greater than 125% is taken as positive drug activity.

L-1210 lymphoid leukemia [2] = experiment: L-1210 lymphoid leukemia in vivo, mean survival, 30-day test (Example 9); set-up: species or system CD2 F1 male mice
Excerpt: For Example 9a and 9b, CD2 F1 male mice were used and challenged with L-1210 lymphoid leukemia. […] The test period was for thirty days. Test results are expressed as T/C as per Example 5.
In Example 9a, 24 control animals were used and six test animals at each drug dose level as is indicated below in table 9a. For both the control group and the drug test group, tumors were induced by IP inoculation of tumor seed cells on day zero followed by initiation of drug treatment on day one. For example 9a, water was used as the drug vehicle and for Examples 9b saline was used as the drug vehicle.
In both the control groups and the drug treated groups in Examples 9a and 9b, the test animals were inoculated on day zero IP with 10^6 seed cells of L-1210 lymphoid leukemia. For Example 9a, drug treatment was started on day one and compound 1 given once daily for nine days. Day five was utilized as the cutoff date for death attributable to toxicity of the drug. […] Efficacy of treatment was determined by comparing mean survival time of drug treated animals with mean survival time of the control animals and is expressed as percentage increase of treated animals/control animals (T/C) as per Example 5.
In this example, the drug treated animals were injected IP with dose levels noted in table 5a below. Six animals were treated at each dose level. No control animals survived beyond day ten with a mean death date of day 9.7.
In this example, drug treated animals were injected IP with the dose level noted in table 5b below. Ten animals were treated at each dose level. No control animals survived beyond day ten with a mean death date of day 9.0.

Lewis lung carcinoma = Lewis lung carcinoma (IV inoculated) in vivo, median survival, 60-day test (Example 10); set-up: species or system B6 D2 F1 male mice; settings: for Treated Group Survival Time (median): assigned 60 at end of test, control 18.4; for Percent Treated Animals/Control Animals: based on assigned 60 days
Excerpt: For example 10, B6 D2 F1 male mice were used and challenged with Lewis lung carcinoma.
In Example 10, forty control animals were used and ten test animals each at dose levels indicated below in Table 6. For both the control group and the drug treated group, tumors were induced by IV injection on day zero followed by initiating of drug treatment on day one. For example 10 water was used as the drug vehicle.
In both the control group and the drug treated group in Example 10, the animals were inoculated on day zero with a homogenate of 10^6 seed cells of Lewis lung carcinoma. For Example 10, drug treatment was started on day one and compound 1 given once daily for nine days. Day five was utilized as the cut-off date for details attributable to toxicity of the drug. […] Efficacy of treatment was determined by comparing median survival time of drug treated animals with median survival time of the control animals and is expressed as percentage increase of treated animals/control animals (T/C) as per Example 5.
The test period was for sixty days and at the end of the sixty day period all animals surviving in the test groups were evaluated as either cured, no-takes, or tumor survivors as per Example 5 above.
In this example, the drug treated animals were injected IP with the dose level noted in table 6 below. Ten animals were treated at each dose level. No control animals survived beyond day 23 with a median death data of day 18.4. […] Because of this fact, the T/C ratio noted in table 6 below is a constant figure based on assigning survival day rate of sixty to the treated animals and a median death date of 18.4 days to the control animals.

[3] = 100 mg/Kg, ten animals, sixty days

Compound: NC(=O)c1csc([C@@H]2O[C@H](CO)[C@@H](O)[C@H]2O)n1 [Compound 1, 2-β-D-Ribofuranosylthiazole-4-Carboxamide]
- Percent Treated Animals/Control Animals (L-1210 lymphoid leukemia [1]; 12.5 mg/Kg IP once daily x5): 111%
- Treated Group Survival Time (median) (L-1210 lymphoid leukemia [1]; 12.5 mg/Kg IP once daily x5): 9.5 days
- Percent Treated Animals/Control Animals (L-1210 lymphoid leukemia [1]; 25 mg/Kg IP once daily x5): 120%
- Treated Group Survival Time (median) (L-1210 lymphoid leukemia [1]; 25 mg/Kg IP once daily x5): 10.2 days
- Percent Treated Animals/Control Animals (L-1210 lymphoid leukemia [1]; 50 mg/Kg IP once daily x5): 129%
- Treated Group Survival Time (median) (L-1210 lymphoid leukemia [1]; 50 mg/Kg IP once daily x5): 11.0 days
- Percent Treated Animals/Control Animals (L-1210 lymphoid leukemia [1]; 100 mg/Kg IP once daily x5): 149%
- Treated Group Survival Time (median) (L-1210 lymphoid leukemia [1]; 100 mg/Kg IP once daily x5): 12.7 days
- Percent Treated Animals/Control Animals (L-1210 lymphoid leukemia [1]; 200 mg/Kg IP once daily x5): 168%
- Treated Group Survival Time (median) (L-1210 lymphoid leukemia [1]; 200 mg/Kg IP once daily x5): 14.3 days
- survival through day six (drug toxicity) (L-1210 lymphoid leukemia [1]; 12.5-200 mg/Kg IP once daily x5): all drug treated animals survived through day six
- activity in multiple dose assay (L-1210 lymphoid leukemia [1]; T/C >125% taken as positive): positive activity
- median death day vs control (L-1210 lymphoid leukemia [1]; all levels of drug tested): longer at all levels of drug tested
- median death day vs control (L-1210 lymphoid leukemia [1]; greater than 50 mg/Kg): significantly longer
- Percent Treated Animals/Control Animals (L-1210 lymphoid leukemia [2]; Ex. 9a, water, 25 mg/Kg IP once daily x9): 131%
- Treated Group Survival Time (mean) (L-1210 lymphoid leukemia [2]; Ex. 9a, water, 25 mg/Kg IP once daily x9, control 9.7): 12.8 days
- Percent Treated Animals/Control Animals (L-1210 lymphoid leukemia [2]; Ex. 9a, water, 50 mg/Kg IP once daily x9): 136%
- Treated Group Survival Time (mean) (L-1210 lymphoid leukemia [2]; Ex. 9a, water, 50 mg/Kg IP once daily x9, control 9.7): 13.2 days
- Percent Treated Animals/Control Animals (L-1210 lymphoid leukemia [2]; Ex. 9a, water, 100 mg/Kg IP once daily x9): 144%
- Treated Group Survival Time (mean) (L-1210 lymphoid leukemia [2]; Ex. 9a, water, 100 mg/Kg IP once daily x9, control 9.7): 14.0 days
- Percent Treated Animals/Control Animals (L-1210 lymphoid leukemia [2]; Ex. 9a, water, 200 mg/Kg IP once daily x9): 157%
- Treated Group Survival Time (mean) (L-1210 lymphoid leukemia [2]; Ex. 9a, water, 200 mg/Kg IP once daily x9, control 9.7): 15.3 days
- Percent Treated Animals/Control Animals (L-1210 lymphoid leukemia [2]; Ex. 9a, water, 400 mg/Kg IP once daily x9): 192%
- Treated Group Survival Time (mean) (L-1210 lymphoid leukemia [2]; Ex. 9a, water, 400 mg/Kg IP once daily x9, control 9.7): 18.7 days
- Percent Treated Animals/Control Animals (L-1210 lymphoid leukemia [2]; Ex. 9b, saline, 100 mg/Kg IP): 183%
- Treated Group Survival Time (mean) (L-1210 lymphoid leukemia [2]; Ex. 9b, saline, 100 mg/Kg IP, control 9.0): 16.5 days
- Percent Treated Animals/Control Animals (L-1210 lymphoid leukemia [2]; Ex. 9b, saline, 200 mg/Kg IP): 182%
- Treated Group Survival Time (mean) (L-1210 lymphoid leukemia [2]; Ex. 9b, saline, 200 mg/Kg IP, control 9.0): 16.4 days
- Percent Treated Animals/Control Animals (L-1210 lymphoid leukemia [2]; Ex. 9b, saline, 400 mg/Kg IP): 224%
- Treated Group Survival Time (mean) (L-1210 lymphoid leukemia [2]; Ex. 9b, saline, 400 mg/Kg IP, control 9.0): 20.2 days
- Percent Treated Animals/Control Animals (L-1210 lymphoid leukemia [2]; Ex. 9b, saline, 600 mg/Kg IP): 230%
- Treated Group Survival Time (mean) (L-1210 lymphoid leukemia [2]; Ex. 9b, saline, 600 mg/Kg IP, control 9.0): 20.7 days
- Percent Treated Animals/Control Animals (L-1210 lymphoid leukemia [2]; Ex. 9b, saline, 800 mg/Kg IP): 171%
- Treated Group Survival Time (mean) (L-1210 lymphoid leukemia [2]; Ex. 9b, saline, 800 mg/Kg IP, control 9.0): 15.4 days
- activity against L-1210 lymphoid leukemia (L-1210 lymphoid leukemia [2]; Example 9): active against L-1210 lymphoid leukemia
- mortality attributed to drug toxicity (L-1210 lymphoid leukemia [2]; Example 9b, day five cut-off): only one instance
- DN 2 criteria of the National Cancer Institute (L-1210 lymphoid leukemia [2]; L-1210): successfully passed
- animals surviving the sixty day test period (Lewis lung carcinoma; 25 mg/Kg): all test animals survived
- Treated Group Survival Time (median) (Lewis lung carcinoma; 25 mg/Kg IP once daily x9): 60 days
- Percent Treated Animals/Control Animals (Lewis lung carcinoma; 25 mg/Kg IP once daily x9): 326%
- Treated Group Survival Time (median) (Lewis lung carcinoma; 50 mg/Kg IP once daily x9): 60 days
- Percent Treated Animals/Control Animals (Lewis lung carcinoma; 50 mg/Kg IP once daily x9): 326%
- day of the one death (Lewis lung carcinoma; 50 mg/Kg, ten animals): 47 days
- animals judged as cured (Lewis lung carcinoma; 50 mg/Kg, ten animals, sixty days): nine cures
- Treated Group Survival Time (median) (Lewis lung carcinoma; 100 mg/Kg IP once daily x9): 60 days
- Percent Treated Animals/Control Animals (Lewis lung carcinoma; 100 mg/Kg IP once daily x9): 326%
- day of the one death (Lewis lung carcinoma; 100 mg/Kg, ten animals): 46 days
- animals judged as cured (Lewis lung carcinoma; [3]): eight cures
- tumor survivors (Lewis lung carcinoma; [3]): one tumor survivor
- animals surviving the sixty day test period (Lewis lung carcinoma; 200 mg/Kg): all test animals survived
- Treated Group Survival Time (median) (Lewis lung carcinoma; 200 mg/Kg IP once daily x9): 60 days
- Percent Treated Animals/Control Animals (Lewis lung carcinoma; 200 mg/Kg IP once daily x9): 326%
- animals judged as cured (Lewis lung carcinoma; 200 mg/Kg, ten animals, sixty days): all ten
- animals surviving the sixty day test period (Lewis lung carcinoma; 400 mg/Kg): all test animals survived
- Treated Group Survival Time (median) (Lewis lung carcinoma; 400 mg/Kg IP once daily x9): 60 days
- Percent Treated Animals/Control Animals (Lewis lung carcinoma; 400 mg/Kg IP once daily x9): 326%
- animals judged as cured (Lewis lung carcinoma; 400 mg/Kg, ten animals, sixty days): all ten
- mortality attributable to drug toxicity (Lewis lung carcinoma; 25-400 mg/Kg, day five cut-off): no mortality attributable to drug toxicity
- activity against Lewis lung carcinoma (Lewis lung carcinoma; Example 10): effective antitumor agent; also recorded: active antitumor agent; also recorded: outstanding activity
- median survival time vs control (Lewis lung carcinoma; Example 10): dramatically extended
- DN 2 criteria of the National Cancer Institute (Lewis lung carcinoma; Lewis lung carcinoma): successfully passed
- cures at cessation of the test period (Lewis lung carcinoma; all but one dose level): at least 80%
- cures at cessation of the test period (Lewis lung carcinoma; at two dose levels (200 and 400 mg/Kg)): 100%
